Counter-ions that a name gives are not always drawn.

As usually defined, the inhibition is the drop in the measured response relative to a control, in per cent.

The subject of assay [1] is human colon adenocarcinoma, MDR positive (HCT-15) cells. As to the kind of experiment: 48-hour cellular proliferation assay (sulforhodamine staining), HCT-15 cells. The assay is classed as cell-based. To be noted: 10^−4 M compound, HCT-15 cells (MDR positive); for inhibition at 100 µM: Homo sapiens. The method, then: (§1) Compounds of this invention were tested in a 48-hour cellular proliferation assay which uses human colon adenocarcinoma, MDR positive (HCT-15) cells, and human lung large cell carcinoma, MDR negative (NCI-H460) cells, in the 96-well microtitre format described in Skehan P., et al. New Colorimetric Cytotoxicity Assay for Anticancer Drug Screening. 1990, J. Natl. Cancer Inst. 82:1107-1112, hereby incorporated by reference. Briefly, the wells of a microtitre plate were charged sequentially with cultured cells and compounds of the invention (1.0×10^−4 to 1.0×10^−11 M in 10% DMSO prepared by dissolving compounds of the invention in DMSO and adding 11 μL of the DMSO solution to 100 μL of culture medium for a final DMSO concentration of 10%). Two of the following controls were also present in each microtitre plate: a solvent (DMSO) control without drug that yielded a 0% inhibition level and a trichloroacetic acid-treated well that yielded a 100% inhibition level. The cells were grown in culture (37° C., 5% CO2 atmosphere) for 48 hours then fixed by the addition of trichloroacetic acid. The wells were stained with sulforhodamine, washed with 1% acetic acid, and treated with 0.01 M tris buffer (100 μL) to solubilize the adherent dye. The absorbance of the dye solution was measured with a Molecular Devices SpectraMax340 plate reader. The percent inhibition values were obtained by calculating the proportional response of the experimental values to the absorbance values of the controls.

The test system of assay [2] is human lung large cell carcinoma, MDR negative (NCI-H460) cells. As to the kind of experiment: 48-hour cellular proliferation assay (sulforhodamine staining), NCI-H460 cells. The assay is classed as cell-based. The conditions noted are these: 10^−4 M compound; for inhibition at 100 µM: Homo sapiens, read-out: NCI-460 % inhibition at 10^−4 M. The method, then: as §1

As to “3,4-dimethoxy-N-(3,4,5-trimethoxyphenyl)benzamide [Example 2]”, the “HCT-15 % inhibition at 10^−4 M” value in assay [1] was more than 95%. The “NCI-460 % inhibition at 10^−4 M” value in assay [2] turned out to be 99.6%.

`COc1cc(NS(=O)(=O)c2ccc(OC(F)(F)F)cc2)cc(OC)c1OC` [Example 3, 4-trifluoromethoxy-N-(3,4,5-trimethoxyphenyl)benzenesulfonamide]: the results for the inhibition at 100 µM in assay [1] and in assay [2] were 94.4% and 100%, respectively.

Turning to `COc1cc(NS(=O)(=O)c2ccc(C(F)(F)F)cc2)cc(OC)c1OC` [Example 4, 4-trifluoromethyl-N-(3,4,5-trimethoxyphenyl)benzenesulfonamide], the inhibition at 100 µM in assay [1] worked out at 82.6%; in assay [2], 99.8%.

In the case of `COc1cc(NS(=O)(=O)c2ccc([N+](=O)[O-])cc2)cc(OC)c1OC` [Example 5, 4-nitro-N-(3,4,5-trimethoxyphenyl)benzenesulfonamide], the inhibition at 100 µM worked out at 68.5% in assay [1] and 99.9% in assay [2].

As to `COc1cc(NS(=O)(=O)c2ccc(N)cc2)cc(OC)c1OC` [Example 6, 4-amino-N-(3,4,5-trimethoxyphenyl)benzenesulfonamide], the inhibition at 100 µM in assay [1] is 54.8%; in assay [2] it was more than 95%.

With `COc1cc(NS(=O)(=O)c2ccc(NC(=O)CCl)cc2)cc(OC)c1OC` [Example 7, 4-((2-chloroacetyl)amino)-N-(3,4,5-trimethoxyphenyl)benzenesulfonamide], the inhibition at 100 µM in assay [1] came out at 96.7%; in assay [2], 89.2%.

Turning to `COc1cc(NS(=O)(=O)c2ccccc2[N+](=O)[O-])cc(OC)c1OC` [Example 8, 2-nitro-N-(3,4,5-trimethoxyphenyl)benzenesulfonamide], the inhibition at 100 µM in assay [1] was found to be 53.8%; in assay [2], 50%.

In the case of `COc1ccc(S(=O)(=O)Nc2cc(OC)c(OC)c(OC)c2)cc1[N+](=O)[O-]` [Example 9, 4-methoxy-3-nitro-N-(3,4,5-trimethoxyphenyl)benzenesulfonamide], the inhibition at 100 µM came to 77.2% in assay [1] and 47.4% in assay [2].

In the case of `COc1ccc(S(=O)(=O)Nc2cc(OC)c(OC)c(OC)c2)cc1N` [Example 10, 3-amino-4-methoxy-N-(3,4,5-trimethoxyphenyl)benzenesulfonamide hydrochloride], the inhibition at 100 µM in assay [1] stood at 99.8%; in assay [2], 99.6%.

As to `COc1cc(NS(=O)(=O)c2c[nH]c3ccc(N)cc23)cc(OC)c1OC` [Example 17, 5-amino-N-(3,4,5-trimethoxyphenyl)-1H-indole-3-sulfonamide], the inhibition at 100 µM in assay [2] was less than 9.1%.

As for `COc1cc(NS(=O)(=O)c2ccc3c(ccn3C)c2)cc(OC)c1OC` [Example 19, 1-methyl-N-(3,4,5-trimethoxyphenyl)-1H-indole-5-sulfonamide], the inhibition at 100 µM in assay [2] is 100%.

In the case of `COc1ccc(NS(=O)(=O)c2cc(OC)c(OC)c(OC)c2)cc1` [Example 21, 3,4,5-trimethoxy-N-(4-methoxyphenyl)benenesulfonamide], the “HCT-15 % inhibition at 10^−4 M” value in assay [1] turned out to be 97.8%. Besides, the “NCI-460 % inhibition at 10^−4 M” value in assay [2] was 96.0%.

Turning to `COc1ccc(NC(=O)c2cc(OC)c(OC)c(OC)c2)cc1O` [Example 22, N-(3-hydroxy-4-methoxyphenyl)-3,4,5-trimethoxybenzamide], the inhibition at 100 µM in assay [1] was 99.8%; in assay [2], 99.5%.

Regarding `COc1cc(S(=O)(=O)Nc2ccc3c(ccn3C)c2)cc(OC)c1OC` [Example 23, N-(1-methyl-1H-indol-5-yl)-3,4,5-trimethoxybenzenesulfonamide], the inhibition at 100 µM in assay [1] and in assay [2] was 100% each time.

For `COc1cc(S(=O)(=O)Nc2ccc(N(C)C)cc2)cc(OC)c1OC` [Example 24, N-(4-(dimethylamino)phenyl)-3,4,5-trimethoxybenzenesulfonamide], the inhibition at 100 µM was 95.8% in assay [1] and 92% in assay [2].

As to `COc1cc(NS(=O)(=O)c2cc(OC)c(OC)c(OC)c2)ccc1F` [Example 25, N-(4-fluoro-3-methoxyphenyl)-3,4,5-trimethoxybenzenesulfonamide], the values for the inhibition at 100 µM in assay [1] and in assay [2] were 62.1% and 57.8%, respectively.

Turning to `COc1cc(S(=O)(=O)Nc2ccc(OC(F)(F)F)cc2)cc(OC)c1OC` [Example 26, 3,4,5-trimethoxy-N-(4-(trifluoromethoxy)phenyl)benzenesulfonamide], the inhibition at 100 µM stood at 70.9% in assay [1] and 46.7% in assay [2].

For the molecule `COc1cc(S(=O)(=O)Nc2c(F)c(F)c(F)c(F)c2F)cc(OC)c1OC` [Example 27, 3,4,5-trimethoxy-N-(2,3,4,5,6-pentafluorophenyl)benzenesulfonamide], the inhibition at 100 µM in assay [1] is 57%; in assay [2], 61.6%.

`COc1ccc(NS(=O)(=O)c2cc(OC)c(OC)c(OC)c2)cc1N` [Example 28, N-(3-amino-4-methoxyphenyl)-3,4,5-trimethoxybenzenesulfonamide hydrochloride]: the inhibition at 100 µM in assay [1] turned out to be 99.9%; in assay [2], 99.8%.

For the molecule `COc1cc(S(=O)(=O)Nc2cccc3c2ccn3C)cc(OC)c1OC` [Example 29, 3,4,5-trimethoxy-N-(1-methyl-1H-indol-4-yl)benzenesulfonamide], the figures for the inhibition at 100 µM in assay [1] and in assay [2] were 95.1% and 90.8%, respectively.

On to `COc1cc(S(=O)(=O)Nc2ccc3ccn(C)c3c2)cc(OC)c1OC` [Example 30, 3,4,5-trimethoxy-N-(1-methyl-1H-indol-6-yl)benzenesulfonamide], for which the figures for the inhibition at 100 µM in assay [1] and in assay [2] were 94.9% and 83.8%, respectively.

Regarding `COc1cc(S(=O)(=O)Nc2ccc3[nH]ccc3c2)cc(OC)c1OC` [Example 31, N-(1H-indol-5-yl)-3,4,5-trimethoxybenzenesulfonamide], the inhibition at 100 µM turned out to be 98.6% in assay [1] and 95.1% in assay [2].

Turning to `COc1cc(S(=O)(=O)Nc2ccc3c(c2)cc(C)n3C)cc(OC)c1OC` [Example 32, N-(1,2-dimethyl-1H-indol-5-yl)-3,4,5-trimethoxybenzenesulfonamide], the inhibition at 100 µM in assay [1] and in assay [2] was 99.8% each time.

For `COc1cc(S(=O)(=O)Nc2ccc3[nH]cc(Cl)c3c2)cc(OC)c1OC` [Example 33, N-(3-chloro-1H-indol-5-yl)-3,4,5-trimethoxybenzenesulfonamide], the inhibition at 100 µM in assay [1] worked out at 92%; in assay [2], 2.8%.

For `COc1cc(S(=O)(=O)Nc2ccc3[nH]ncc3c2)cc(OC)c1OC` [Example 34, N-(1H-indazol-5-yl)-3,4,5-trimethoxybenzenesulfonamide], the values for the inhibition at 100 µM in assay [1] and in assay [2] were 47.6% and 18.5%, respectively.

Regarding `COc1cc(S(=O)(=O)Nc2ccc3ncn(C)c3c2)cc(OC)c1OC` [Example 35, 3,4,5-trimethoxy-N-(1-methyl-1H-benzimidazol-6-yl)benzenesulfonamide], the inhibition at 100 µM in assay [1] is 65.2%; in assay [2], 34.5%.

For the molecule `COc1cc(S(=O)(=O)Nc2ccc3c(c2)ncn3C)cc(OC)c1OC` [Example 36, 3,4,5-trimethoxy-N-(1-methyl-1H-benzimidazol-5-yl)benzenesulfonamide], the inhibition at 100 µM in assay [1] amounted to 99.3%; in assay [2], 99.5%.

On to `COc1cc(S(=O)(=O)N(C)c2ccc3c(ccn3C)c2)cc(OC)c1OC` [Example 37, 3,4,5-trimethoxy-N-methyl-N-(1-methyl-1H-indol-5-yl)benzenesulfonamide], for which the inhibition at 100 µM in assay [1] was determined as 99.9%; in assay [2], 100%.

With `COc1cc(S(=O)(=O)N(CCN(C)C)c2ccc3c(ccn3C)c2)cc(OC)c1OC` [Example 38, 3,4,5-trimethoxy-N-(2-(dimethylamino)ethyl)-N-(1-methyl-1H-indol-5-yl)benzenesulfonamide], the inhibition at 100 µM in assay [1] amounted to 87.5%; in assay [2] it was 81%.

In the case of `COc1cc(S(=O)(=O)Oc2ccc3[nH]ccc3c2)cc(OC)c1OC` [Example 39, 1H-indol-5-ol, (3,4,5-trimethoxybenzenesulfonate)ester], the “HCT-15 % inhibition at 10^−4 M” value in assay [1] amounted to 100.0%. Moreover, in assay [2], the “NCI-460 % inhibition at 10^−4 M” value was 100.0%.

Take `COc1ccc(S(=O)(=O)Oc2cc(OC)c(OC)c(OC)c2)cc1` [Example 40, (3,4,5-trimethoxyphenyl) 4-methoxybenzenesulfonate]: the inhibition at 100 µM in assay [1] and in assay [2] was 99.9% each time.

Regarding `COc1cc(OS(=O)(=O)c2ccc(C)cc2)cc(OC)c1OC` [Example 41, (3,4,5-trimethoxyphenyl) 4-methylbenzenesulfonate], the values for the inhibition at 100 µM in assay [1] and in assay [2] were 99.8% and 99.5%, respectively.

As to `COc1cc(S(=O)(=O)Oc2ccc3[nH]ccc3c2)cc(OC)c1OC` [Example 42, 1H-indol-5-yl 3,4,5-trimethoxybenzenesulfonate], the inhibition at 100 µM in assay [1] and in assay [2] was 100% each time.

`COc1ccc(S(=O)(=O)Oc2cc(OC)c(OC)c(OC)c2)cc1N` [Example 43, (3,4,5-trimethoxyphenyl) 3-amino-4-methoxybenzenesulfonate]: the inhibition at 100 µM in assay [1] and in assay [2] was 100% in each case.
